Structures can show the parent of a compound that is named as a salt.
Target: EZH2 (Homo sapiens (Human), UniProt Q15910)
Test: Test method for EZH2 enzyme activity
Type: biochemical
Conditions: H3K27(21-44) and [3H]-SAM
Experimental: The compounds were dissolved in DMSO, formulated into 10 mM solutions and serially diluted with DMSO to obtain 100-fold the final concentration. 200 nL of the solutions of the compounds was transferred to a 384-well plate (Perkin Elmer, Cat. No. 6007299) by using Echo550. EZH2 (BPS, Cat. No. 51004) was diluted with 1×assay buffer (50 mM Tris-HCl 9.0, 0.01% Tween-20, 1 mM DTT) to 2-fold the final concentration (EZH2: 3 nM). A mixed solution of H3K27(21-44) and [3H]-SAM (PerkinElmer, Lot. No. 2146246) (H3K27(21-44): 200 nM, [3H]-SAM: 100 nM) was formulated. The EZH2 diluted solution was taken and added to the 384-well plate at 10 μL/well (10 μL of 1×assay buffer was added in the control group). The plate was sealed and then incubated at room temperature for 15 minutes. 10 μL of the mixed solution of H3K27 (21-44) and [3H]-SAM was added to each well. The plate was sealed and then incubated at room temperature for 60 minutes. 50 μM of SAM (Sigma, Cat. No. A7007) was formulated at low temperature and added to the 384-well plate at 10 μL/well. The sample was taken at 25 μL/well, transferred to a flashplate and incubated at room temperature for at least 1 hour. The flashplate was washed 3 times with a plate washing liquid (dH2O+0.1% Tween-20) and read by using Microbeta. The inhibition rate was calculated in Excel according to: inhibition rate (%)=(maximum valuepositive control−detection signal value)/(maximum valuepositive control−minimum valuenegative control)*100, and IC50 values were fitted by using XL-Fit.

Sequence of EZH2 (Q15910 other isoform, or with tags, fused parts or gaps isoform Q15910-2): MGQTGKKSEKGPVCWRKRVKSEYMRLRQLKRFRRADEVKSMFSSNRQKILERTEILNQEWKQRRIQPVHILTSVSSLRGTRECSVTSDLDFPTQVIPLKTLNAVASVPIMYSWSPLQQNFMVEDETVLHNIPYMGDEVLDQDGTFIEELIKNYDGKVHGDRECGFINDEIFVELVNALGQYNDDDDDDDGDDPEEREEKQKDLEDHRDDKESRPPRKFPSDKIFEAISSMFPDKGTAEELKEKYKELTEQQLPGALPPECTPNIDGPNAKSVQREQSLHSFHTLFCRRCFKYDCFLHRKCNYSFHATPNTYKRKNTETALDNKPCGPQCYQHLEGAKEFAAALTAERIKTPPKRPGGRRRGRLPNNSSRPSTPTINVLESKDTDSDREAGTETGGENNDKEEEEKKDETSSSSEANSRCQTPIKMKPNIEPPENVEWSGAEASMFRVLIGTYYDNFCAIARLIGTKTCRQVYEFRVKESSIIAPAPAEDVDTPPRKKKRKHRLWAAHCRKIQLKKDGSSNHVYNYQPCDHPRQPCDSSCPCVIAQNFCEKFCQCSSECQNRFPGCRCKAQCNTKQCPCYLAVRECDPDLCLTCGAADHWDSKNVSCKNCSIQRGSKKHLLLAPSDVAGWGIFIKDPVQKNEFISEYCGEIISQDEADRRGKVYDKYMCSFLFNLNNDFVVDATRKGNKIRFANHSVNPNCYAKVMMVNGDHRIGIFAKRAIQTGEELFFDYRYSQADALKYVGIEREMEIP
Sequence of EZH2 (O75530 2-441 partner): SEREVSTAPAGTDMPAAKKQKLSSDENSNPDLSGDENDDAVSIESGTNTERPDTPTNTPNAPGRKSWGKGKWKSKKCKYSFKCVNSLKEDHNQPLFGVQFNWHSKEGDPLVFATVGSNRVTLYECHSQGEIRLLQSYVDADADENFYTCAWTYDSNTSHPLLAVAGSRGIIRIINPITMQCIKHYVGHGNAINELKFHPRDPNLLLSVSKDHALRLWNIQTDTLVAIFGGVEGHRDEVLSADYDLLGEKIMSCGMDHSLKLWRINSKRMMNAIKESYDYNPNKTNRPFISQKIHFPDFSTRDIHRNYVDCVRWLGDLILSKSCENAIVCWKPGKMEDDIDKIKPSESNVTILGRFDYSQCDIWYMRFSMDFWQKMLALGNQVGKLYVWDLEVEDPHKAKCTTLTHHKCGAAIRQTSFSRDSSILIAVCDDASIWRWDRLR
Sequence of EZH2 (Q15022 2-739 partner): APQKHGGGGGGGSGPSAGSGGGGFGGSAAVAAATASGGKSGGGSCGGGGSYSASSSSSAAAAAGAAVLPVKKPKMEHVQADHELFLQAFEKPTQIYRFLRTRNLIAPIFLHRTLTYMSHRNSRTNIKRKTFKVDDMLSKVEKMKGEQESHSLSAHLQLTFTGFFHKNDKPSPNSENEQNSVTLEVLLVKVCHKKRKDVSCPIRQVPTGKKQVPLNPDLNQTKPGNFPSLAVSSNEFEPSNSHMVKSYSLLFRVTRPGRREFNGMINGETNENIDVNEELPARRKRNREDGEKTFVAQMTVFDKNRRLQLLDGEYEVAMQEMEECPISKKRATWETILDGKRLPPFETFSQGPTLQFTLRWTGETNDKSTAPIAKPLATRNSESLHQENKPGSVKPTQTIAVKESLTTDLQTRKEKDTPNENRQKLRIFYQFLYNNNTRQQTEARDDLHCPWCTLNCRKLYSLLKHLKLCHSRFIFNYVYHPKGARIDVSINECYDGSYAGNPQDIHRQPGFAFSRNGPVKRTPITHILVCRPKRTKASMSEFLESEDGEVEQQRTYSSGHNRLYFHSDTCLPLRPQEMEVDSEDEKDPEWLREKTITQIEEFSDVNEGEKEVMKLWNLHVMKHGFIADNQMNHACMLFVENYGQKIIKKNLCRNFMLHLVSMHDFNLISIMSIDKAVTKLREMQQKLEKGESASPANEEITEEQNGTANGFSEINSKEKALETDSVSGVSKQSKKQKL
Sequence of EZH2 (Q09028 2-425 partner): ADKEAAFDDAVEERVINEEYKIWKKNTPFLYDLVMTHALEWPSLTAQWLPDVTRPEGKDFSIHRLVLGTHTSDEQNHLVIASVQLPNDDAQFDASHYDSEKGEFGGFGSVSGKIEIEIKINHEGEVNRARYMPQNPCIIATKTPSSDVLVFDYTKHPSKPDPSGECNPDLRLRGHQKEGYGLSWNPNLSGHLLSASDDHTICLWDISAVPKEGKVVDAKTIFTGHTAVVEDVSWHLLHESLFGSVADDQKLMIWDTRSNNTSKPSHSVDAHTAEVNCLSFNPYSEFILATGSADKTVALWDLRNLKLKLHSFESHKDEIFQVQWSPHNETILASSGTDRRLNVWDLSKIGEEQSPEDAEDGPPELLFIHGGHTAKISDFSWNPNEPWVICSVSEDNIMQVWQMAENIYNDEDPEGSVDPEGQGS
Sequence of EZH2 (Q6ZN18 whole entry partner): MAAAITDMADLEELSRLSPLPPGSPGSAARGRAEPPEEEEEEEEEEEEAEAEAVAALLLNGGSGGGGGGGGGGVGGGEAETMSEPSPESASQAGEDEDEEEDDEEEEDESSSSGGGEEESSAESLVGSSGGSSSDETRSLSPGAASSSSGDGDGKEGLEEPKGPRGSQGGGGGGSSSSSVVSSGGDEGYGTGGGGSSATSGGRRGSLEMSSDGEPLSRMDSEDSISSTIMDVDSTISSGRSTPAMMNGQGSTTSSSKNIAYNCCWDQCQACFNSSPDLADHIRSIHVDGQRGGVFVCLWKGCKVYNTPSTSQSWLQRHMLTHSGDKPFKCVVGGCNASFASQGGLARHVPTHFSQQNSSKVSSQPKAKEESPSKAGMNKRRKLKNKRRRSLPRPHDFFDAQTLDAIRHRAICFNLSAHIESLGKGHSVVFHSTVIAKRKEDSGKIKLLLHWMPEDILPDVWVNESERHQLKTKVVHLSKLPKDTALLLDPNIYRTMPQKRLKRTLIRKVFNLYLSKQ

Row | Compound | IC50 [nM]
1 | CSc1cc(C)[nH]c(=O)c1CNC(=O)c1cc(Cl)c2c(c1C)OC(C)([C@H]1CC[C@@H](NC(=O)C3CC(F)(F)C3)CC1)O2 (single isomer, unassigned) [Compound 6, isomer 2, 7-chloro-2-(4-(3,3-difluorocyclobutane-1-carboxamido)cyclohexyl)-2,4-dimethyl-N-((6-methyl-4-(methylthio)-2-oxo-1,2-dihydropyridin-3-yl)methyl)benzo[d][1,3]dioxole-5-carboxamide] | 0.64
2 | CSc1cc(C)[nH]c(=O)c1CNC(=O)c1cc(Cl)c2c(c1C)OC(C)(C1CCN(C3CC3)CC1)O2 (stereo not shown) [Compound 24, 7-chloro-2-(1-cyclopropylpiperidin-4-yl)-2,4-dimethyl-N-((6-methyl-4-(methylthio)-2-oxo-1,2-dihydropyridin-3-yl)methyl)benzo[d][1,3]dioxole-5-carboxamide] | 0.58
3 | CSc1cc(C)[nH]c(=O)c1CNC(=O)c1cc(Cl)c2c(c1C)OC(C)(C1CCC(NC3COC3)CC1)O2 (single isomer, unassigned) [Compound 61, isomer 1, 7-chloro-2,4-dimethyl-N-((6-methyl-4-(methylthio)-2-oxo-1,2-dihydropyridin-3-yl)methyl)-2-(4-(oxetan-3-ylamino)cyclohexyl)benzo[d][1,3]dioxole-5-carboxamide] | 0.52
4 | CSc1cc(C)[nH]c(=O)c1CNC(=O)c1cc(Cl)c2c(c1C)OC(C)(C1CCC(N[C@H]3C[C@H](O)C3)CC1)O2 (single isomer, unassigned) [Compound 45, isomer 2, 7-chloro-2-(4-((trans-3-hydroxycyclobutyl)amino)cyclohexyl)-2,4-dimethyl-N-((6-methyl-4-(methylthio)-2-oxo-1,2-dihydropyridin-3-yl)methyl)benzo[d][1,3]dioxole-5-carboxamide] | 0.35
5 | CSc1cc(C)[nH]c(=O)c1CNC(=O)c1cc(Cl)c2c(c1C)OC(C)(C1CCN(CC3(F)CC3)CC1)O2 (stereo not shown) [Compound 32, 7-chloro-2-(1-((1-fluorocyclopropyl)methyl)piperidin-4-yl)-2,4-dimethyl-N-((6-methyl-4-(methylthio)-2-oxo-1,2-dihydropyridin-3-yl)methyl)benzo[d][1,3]dioxole-5-carboxamide] | 0.58
6 | CSc1cc(C)[nH]c(=O)c1CNC(=O)c1cc(Cl)c2c(c1C)OC(C)(C1CCC(N3CCC4(CNC(=O)C4)C3)CC1)O2 (single isomer, unassigned) [Compound 18, isomer 2, 7-chloro-2,4-dimethyl-N-((6-methyl-4-(methylthio)-2-oxo-1,2-dihydropyridin-3-yl)methyl)-2-(4-(8-oxo-2,7-diazaspiro[4.4]nonan-2-yl)cyclohexyl)benzo[d][1,3]dioxole-5-carboxamide] | 0.78
7 | CSc1cc(C)[nH]c(=O)c1CNC(=O)c1cc(Cl)c2c(c1C)OC(C)(C1CCN(C(=O)C3CC(F)(F)C3)CC1)O2 (single isomer, unassigned) [Compound 5, isomer 1, 7-chloro-2-(1-(3,3-difluorocyclobutane-1-carbonyl)piperidin-4-yl)-2,4-dimethyl-N-((6-methyl-4-(methylthio)-2-oxo-1,2-dihydropyridin-3-yl)methyl)benzo[d][1,3]dioxole-5-carboxamide] | 0.58
8 | CSc1cc(C)[nH]c(=O)c1CNC(=O)c1cc(Cl)c2c(c1C)OC(C)(C1CCC(N3CC(C#N)C3)CC1)O2 (single isomer, unassigned) [Compound 2, isomer 2, 7-chloro-2-(4-(3-cyanoazetidin-1-yl)cyclohexyl)-2,4-dimethyl-N-((6-methyl-4-(methylthio)-2-oxo-1,2-dihydropyridin-3-yl)methyl)benzo[d][1,3]dioxole-5-carboxamide] | 0.72
9 | CSc1cc(C)[nH]c(=O)c1CNC(=O)c1cc(Cl)c2c(c1C)OC(C)(C1CCN(C(=O)C3CC(F)(F)C3)CC1)O2 (single isomer, unassigned; isomer 1) [Compound 11, isomer 1, 7-chloro-2-(1-(3,3-difluorocyclobutane-1-carbonyl)piperidin-4-yl)-2,4-dimethyl-N-((6-methyl-4-(methylthio)-2-oxo-1,2-dihydropyridin-3-yl)methyl)benzo[d][1,3]dioxole-5-carboxamide] | 0.73
10 | CSc1cc(C)[nH]c(=O)c1CNC(=O)c1cc(Cl)c2c(c1C)OC(C)([C@H]1CC[C@@H](NCC3(C)COC3)CC1)O2 (single isomer, unassigned) [Compound 3, isomer 1, 7-chloro-2,4-dimethyl-N-((6-methyl-4-(methylthio)-2-oxo-1,2-dihydropyridin-3-yl)methyl)-2-(4-(((3-methyloxetan-3-yl)methyl)amino)cyclohexyl)benzo[d][1,3]dioxole-5-carboxamide trifluoroacetate] | 0.65
11 | CSc1cc(C)[nH]c(=O)c1CNC(=O)c1cc(Cl)c2c(c1C)OC(C)(C1CCC(N3CC(N(C)C)C3)CC1)O2 (single isomer, unassigned) [Compound 1, isomer 2, 7-chloro-2-(4-(3-(dimethylamino)azetidin-1-yl)cyclohexyl)-2,4-dimethyl-N-((6-methyl-4-(methylthio)-2-oxo-1,2-dihydropyridin-3-yl)methyl)benzo[d][1,3]dioxole-5-carboxamide] | 0.6

Continued, values first:

Row | IC50 [nM] | Compound
12 | 0.51 | CSc1cc(C)[nH]c(=O)c1CNC(=O)c1cc(Cl)c2c(c1C)OC(C)([C@H]1CC[C@@H](NCC3(C)COC3)CC1)O2 (single isomer, unassigned) [Compound 3, isomer 2, 7-chloro-2,4-dimethyl-N-((6-methyl-4-(methylthio)-2-oxo-1,2-dihydropyridin-3-yl)methyl)-2-(4-(((3-methyloxetan-3-yl)methyl)amino)cyclohexyl)benzo[d][1,3]dioxole-5-carboxamide trifluoroacetate]
13 | 0.25 | CSc1cc(C)[nH]c(=O)c1CNC(=O)c1cc(Cl)c2c(c1C)OC(C)(C1CCC(NC3COC3)CC1)O2 (single isomer, unassigned) [Compound 61, isomer 2, 7-chloro-2,4-dimethyl-N-((6-methyl-4-(methylthio)-2-oxo-1,2-dihydropyridin-3-yl)methyl)-2-(4-(oxetan-3-ylamino)cyclohexyl)benzo[d][1,3]dioxole-5-carboxamide]
14 | 0.81 | CO[C@H]1C[C@H](NC2CCC(C3(C)Oc4c(Cl)cc(C(=O)NCc5c(SC)cc(C)[nH]c5=O)c(C)c4O3)CC2)C1 (single isomer, unassigned) [Compound 9, isomer 1, 7-chloro-2-(4-((trans-3-methoxycyclobutyl)amino)cyclohexyl)-2,4-dimethyl-N-((6-methyl-4-(methylthio)-2-oxo-1,2-dihydropyridin-3-yl)methyl)benzo[d][1,3]dioxole-5-carboxamide]
15 | 0.49 | [2H]C([2H])(NC(=O)c1cc(Cl)c2c(c1C)OC(C)([C@H]1CC[C@@H](CN3CCOCC3)CC1)O2)c1c(SC)cc(C)[nH]c1=O (single isomer, unassigned) [Compound 57, isomer 2, 7-chloro-2,4-dimethyl-N-((6-methyl-4-(methylthio)-2-oxo-1,2-dihydropyridin-3-yl)methyl-d2)-2-(4-(morpholinomethyl)cyclohexyl)benzo[d][1,3]dioxole-5-carboxamide]
16 | 0.28 | CSc1cc(C)[nH]c(=O)c1CNC(=O)c1cc(Cl)c2c(c1C)OC(C)(C1CCC(N[C@H]3C[C@H](O)C3)CC1)O2 (single isomer, unassigned) [Compound 45, isomer 1, 7-chloro-2-(4-((trans-3-hydroxycyclobutyl)amino)cyclohexyl)-2,4-dimethyl-N-((6-methyl-4-(methylthio)-2-oxo-1,2-dihydropyridin-3-yl)methyl)benzo[d][1,3]dioxole-5-carboxamide]
17 | 0.46 | [2H]C([2H])(NC(=O)c1cc(Cl)c2c(c1C)OC(C)([C@H]1CC[C@@H](CN3CCOCC3)CC1)O2)c1c(SC)cc(C)[nH]c1=O (single isomer, unassigned) [Compound 57, isomer 1, 7-chloro-2,4-dimethyl-N-((6-methyl-4-(methylthio)-2-oxo-1,2-dihydropyridin-3-yl)methyl-d2)-2-(4-(morpholinomethyl)cyclohexyl)benzo[d][1,3]dioxole-5-carboxamide]
18 | 0.57 | COC1CC(N2CCC(C3(C)Oc4c(Cl)cc(C(=O)NCc5c(SC)cc(C)[nH]c5=O)c(C)c4O3)CC2)C1 (stereo not shown) [Compound 33, 7-chloro-2-(1-(3-methoxycyclobutyl)piperidin-4-yl)-2,4-dimethyl-N-((6-methyl-4-(methylthio)-2-oxo-1,2-dihydropyridin-3-yl)methyl)benzo[d][1,3]dioxole-5-carboxamide]
19 | 0.59 | CSc1cc(C)[nH]c(=O)c1CNC(=O)c1cc(Cl)c2c(c1C)OC(C)(C1CCC(N(C)C3CC(F)(F)C3)CC1)O2 (stereo not shown) [Compound 35, 7-chloro-2-(4-((3,3-difluorocyclobutyl)(methyl)amino)cyclohexyl)-2,4-dimethyl-N-((6-methyl-4-(methylthio)-2-oxo-1,2-dihydropyridin-3-yl)methyl)benzo[d][1,3]dioxole-5-carboxamide]

From patent US20230365541A1, “INHIBITOR OF ENHANCER OF ZESTE HOMOLOGUE 2, AND USE THEREOF” (HAISCO PHARMACEUTICALS PTE. LTD., priority 2020, published 2023)
